Results as given in publication PMC8894159, “Paltusotine, a novel oral once-daily nonpeptide SST2 receptor agonist, suppresses GH and IGF-1 in healthy volunteers” (Pituitary, 2022).

Test system: GHRH-stimulated GH secretion
Experiment: GHRH challenge: suppression of GHRH-stimulated GH secretion, single-dose cohorts
Format: in vivo, human
Protocol: To assess the ability of paltusotine to suppress GHRH-stimulated GH secretion, a GHRH challenge was performed in single-dose cohorts S1, S2, S3, S4, and S5 (oral solution) (Fig. 1). Recombinant human GHRH(1-44)-NH2 (somatorelin; Ferring Pharmaceuticals, Parsippany, NJ) 50 µg was administered intravenously 2 h after paltusotine (or placebo) on Day 1 and at approximately the same time on Day -1 (± 10 min). A blood sample for serum GH was collected at − 60 min, − 30 min, immediately before GHRH challenge, and at 15, 30, 45, 60, 90, and 120 min post-challenge. Serum GH was also assessed in the M1 cohort. Serum GH sample was collected on Day - 1, on Days 1 and 7 (pre-dose, 0.5, 1, 2, 3, 4, 6, 8, 10, 12 and 18 h post-dose), Days 2–6 (pre-dose and 12 h post-dose), and Days 8, 10 and 14 (at approximately the same time as dosing).
Serum was isolated, stored, and analyzed for IGF-1 and GH according to the instructions from the manufacturer (IGF-1 and human GH diagnostic assay, Siemens Immulite® 1000 systems).
The study endpoints were effects of paltusotine on GHRH-stimulated GH and IGF-1 (pharmacodynamics), pharmacokinetics (including formulation and food effects), safety, and tolerability. For the analysis of effects paltusotine on GHRH-stimulated GH and IGF-1, the pharmacodynamic population included all randomized participants in the 1.25 mg, 2.5 mg, 5 mg, 10 mg, and 20 mg (S1, S2, S3, S4A, and S5) single-dose cohorts who received any amount of study drug and had at least one post-baseline pharmacodynamic assessment. The percent change in serum GH area under the curve (AUC) from 0 to 2 h (AUC0-2) from baseline was compared using ANOVA between each dosing cohort and all participants who received placebo. The single-dose pharmacodynamic population included 39 participants from the S1, S2, S3, S4, and S5 cohorts (paltusotine n = 29; placebo n = 10). […] For multiple-dose cohorts, only participants who received all doses were included. A change in IGF-1 levels 12 h post last dose from baseline (average of 3–4 measurements) were compared by ANOVA between each dosing cohort and all participants who received placebo. The multiple-dose pharmacodynamic population included 31 participants from the M1, M2, M3, and M4 cohorts (paltusotine n = 21; placebo n = 10).

[1] = plasma concentration-response model, 1.25-20 mg single doses

Cl.N#Cc1cccc(-c2ccc3ncc(-c4cc(F)cc(F)c4)c(N4CCC(N)CC4)c3c2)c1O [paltusotine, 3-[4-(4-Aminopiperidin-1-yl)-3-(3,5-difluorophenyl)quinolin-6-yl]-2-hydroxybenzonitrile hydrochloride]
mean peak GH concentration after GHRH challenge (10 mg single dose, Day 1, GHRH alone on Day -1 gave 21 ng/mL): 1.7 ng/mL
suppression of stimulated GH AUC0-2 h (10 mg single dose, placebo 15%): 91%
EC50 (Homo sapiens, read-out: paltusotine concentration for 50% GH suppression (EC50), plasma concentration-response model, 1.25-20 mg single doses): ~7.9 ng/mL
paltusotine concentration for 50% GH suppression (EC50) [1]: 7.9 ng/mL
paltusotine concentration for 80% GH suppression (EC80) [1]: ~29 ng/mL
